Test: Distribution coefficient of cyclosporins between lighter organic phase and heavier aqueous phase (n-heptane/acetone/water)
Format: physicochemical
Conditions: conc. in lighter phase / conc. in heavier aqueous phase at 40° C.; 75% n-heptane/25% acetone vs 50% acetone/50% water
Protocol: The distribution coefficient is defined herein as the ratio of the concentration (in g/unit volume) of product in the lighter phase to the concentration (in g/unit volume) of product in the heavier aqueous phase at 40° C.

**Q.** For `C/C=C/C[C@@H](C)[C@@H](O)[C@H]1C(=O)N[C@@H](C)C(=O)N(C)CC(=O)N(C)[C@@H](CC(C)C)C(=O)N[C@@H](C(C)C)C(=O)N(C)[C@@H](CC(C)C)C(=O)N[C@@H](C)C(=O)N[C@H](C)C(=O)N(C)[C@@H](CC(C)C)C(=O)N(C)[C@@H](CC(C)C)C(=O)N(C)[C@@H](C(C)C)C(=O)N1C` [Cyclosporin B], which “Distribution coefficient (to one decimal place)” value is on record?
**A.** Its value is 0.4.

**Q.** Which “Distribution coefficient (to one decimal place)” value does the source give for `C/C=C/C[C@@H](C)[C@@H](O)[C@H]1C(=O)N[C@@H]([C@@H](C)O)C(=O)N(C)CC(=O)N(C)[C@@H](CC(C)C)C(=O)N[C@@H](C(C)C)C(=O)N(C)[C@@H](CC(C)C)C(=O)N[C@@H](C)C(=O)N[C@H](C)C(=O)N(C)[C@@H](CC(C)C)C(=O)N(C)[C@@H](CC(C)C)C(=O)N(C)[C@@H](C(C)C)C(=O)N1C` [Cyclosporin C] here?
**A.** Its value is 0.3.

**Q.** For `C/C=C/C[C@@H](C)[C@@H](O)[C@H]1C(=O)N[C@@H](C(C)C)C(=O)N(C)CC(=O)N(C)[C@@H](CC(C)C)C(=O)N[C@@H](C(C)C)C(=O)N(C)[C@@H](CC(C)C)C(=O)N[C@@H](C)C(=O)N[C@H](C)C(=O)N(C)[C@@H](CC(C)C)C(=O)N(C)[C@@H](CC(C)C)C(=O)N(C)[C@@H](C(C)C)C(=O)N1C` [Cyclosporin D], which “Distribution coefficient (to one decimal place)” value is on record?
**A.** Its value is 1.7.

**Q.** Which “Distribution coefficient (to one decimal place)” value does the source give for `CCCC[C@@H](C)[C@@H](O)[C@H]1C(=O)N[C@@H](CC)C(=O)N(C)CC(=O)N(C)[C@@H](CC(C)C)C(=O)N[C@@H](C(C)C)C(=O)N(C)[C@@H](CC(C)C)C(=O)N[C@@H](C)C(=O)N[C@H](C)C(=O)N(C)[C@@H](CC(C)C)C(=O)N(C)[C@@H](CC(C)C)C(=O)N(C)[C@@H](C(C)C)C(=O)N1C` [Cyclosporin Dihydro-A, dihydro-Cyclosporin A] here?
**A.** The value was 1.0.

**Q.** Which “Distribution coefficient (to one decimal place)” value does the source give for `C/C=C/C[C@@H](C)[C@@H](O)[C@H]1C(=O)N[C@@H](CCC)C(=O)N(C)CC(=O)N(C)[C@@H](CC(C)C)C(=O)N[C@@H](C(C)C)C(=O)N(C)[C@@H](CC(C)C)C(=O)N[C@@H](C)C(=O)N[C@H](C)C(=O)N(C)[C@@H](CC(C)C)C(=O)N(C)[C@@H](CC(C)C)C(=O)N(C)[C@@H](C(C)C)C(=O)N1C` [Cyclosporin G] here?
**A.** The value was 1.3.

**Q.** For `C/C=C/C[C@@H](C)[C@@H](O)[C@@H]1NC(=O)[C@H](C(C)C)N(C)C(=O)[C@H](CC(C)C)N(C)C(=O)[C@H](CC(C)C)N(C)C(=O)[C@@H](C)NC(=O)[C@H](C)NC(=O)[C@H](CC(C)C)N(C)C(=O)[C@H](C(C)C)NC(=O)[C@H](CC(C)C)N(C)C(=O)CN(C)C(=O)[C@H](CC)NC1=O` [Cyclosporin L], which “Distribution coefficient (to one decimal place)” value is on record?
**A.** The value was 0.5.

**Q.** Which “Distribution coefficient (to one decimal place)” value does the source give for `C/C=C/C[C@@H](C)[C@@H](O)[C@H]1C(=O)N[C@@H](CC)C(=O)N(C)CC(=O)N(C)[C@@H](CC(C)C)C(=O)N[C@@H](C(C)C)C(=O)N[C@@H](CC(C)C)C(=O)N[C@@H](C)C(=O)N[C@H](C)C(=O)N(C)[C@@H](CC(C)C)C(=O)N(C)[C@@H](CC(C)C)C(=O)N(C)[C@@H](C(C)C)C(=O)N1C` [Cyclosporin U] here?
**A.** The value was 0.6.

Test: Distribution coefficient in n-heptane/isopropanol/water phase system
Format: physicochemical
Conditions: lighter phase about 90% n-heptane/10% isopropanol; heavier phase about 32% isopropanol/68% water
Description: The present applicants have found an n-heptane/isopropanol/water system to be effective for purifying 33-epi-chloro-33-desoxyascomycin. In one embodiment, the following phase system is used to purify 33-epi-chloro-33-desoxyascomycin: the lighter phase comprises a mixture in weight-% of about 90% n-heptane, e.g. 89%, and about 10% isopropanol, e.g. 11%; the heavier hase comprises a mixture of about 32% isopropanol, e.g. 31%, and about 68% water, e.g. 69%.
The distribution coefficient is defined herein as the ratio of the concentration (in g/unit volume) of product in the lighter phase to the concentration (in g/unit volume) of product in the heavier aqueous phase at 40° C. The following distribution coefficients are obtained for cyclosporins between 75% n-heptane /25% acetone as lighter organic phase, and 50% acetone 50% water as heavier aqueous phase:
The distribution coefficient for 33-epi-chloro-33-desoxyascomycin is found to be around 7.6 using the above n-heptane/isopropanol/water phase system. The selectivity of ascomycin derivative side product to 33-epi-chloro-33-desoxyascomycin is found to be approximately 1.44.

**Q.** Which Distribution coefficient does the source give for `CC[C@@H]1/C=C(\C)C[C@H](C)C[C@H](OC)[C@H]2O[C@@](O)(C(=O)C(=O)N3CCCC[C@H]3C(=O)O[C@H](/C(C)=C/[C@@H]3CC[C@H](Cl)[C@H](OC)C3)[C@H](C)[C@@H](O)CC1=O)[C@H](C)C[C@@H]2OC` [33-epi-chloro-33-desoxyascomycin] here?
**A.** Its Distribution coefficient is “around 7.6”.

Reference: patent US6620325B2, “Purification process for cyclosporin” (Novartis AG, priority 1996, dated 2003)
